According to ChEMBL document CHEMBL3301472, “MMV Malaria Box HIV and cytotoxicity screening”:

What was measured:
[1] = tested on: Human immunodeficiency virus 1; assay: MMV: HIV CXCR4-tropic env NL4-3 pseudovirus assay produces luciferase signal in lieu of replicating viral particles Day 3 pi, U87-CD4-CXCR4, % inhibition at 5 mM compound; type: functional; design: dose or concentration left out as unconfirmed; conditions: Human immunodeficiency virus 1, NL4-3, U87.CD4.CXCR4, 72 h
[2] = MMV: MTT Cytotoxicity Assay Day 3 pi, U87-CD4-CCR5 cells, % cell death @ 5mM compound; type: toxicity, cell-based; conditions: human, u87-cd4-ccr5, 5000 µM
[3] = MMV: MTT Cytotoxicity Assay Day 3 pi, U87-CD4-CXCR4 cells, % cell death @ 5mM compound; type: toxicity, cell-based; conditions: human, u87-cd4-cxcr4, 5000 µM
[4] = tested on: Human immunodeficiency virus 1; assay: MMV: HIV JRFL CCR5-tropic replication-competent virus, virus & compound washed out Day 1 pi, P24 ELISA Day 7 pi, U87-CD4-CCR5, % inhibition at 5 mM compound; type: functional; design: dose or concentration left out as unconfirmed; conditions: Human immunodeficiency virus 1, JR-FL
[5] = MMV: MTT Cytotoxicity Assay Day 7 pi of Assay #6 (compound washed out Day 1 pi), U87-CD4-CCR5 cells, % cell death @ 5mM compound; type: toxicity, cell-based; conditions: human, u87-cd4-ccr5, 5000 µM
[6] = MMV: MTT Cytotoxicity Assay Day 7 pi of Assay #7 (compound washed out Day 1 pi), U87-CD4-CXCR4 cells, % cell death @ 5mM compound; type: toxicity, cell-based; conditions: human, u87-cd4-cxcr4, 5000 µM
[7] = MMV: MTT Cytotoxicity Assay Day 7 pi of Assay #10 (NO washout), U87-CD4-CCR5 cells, % cell death @ 5mM compound; type: toxicity, cell-based; conditions: human, u87-cd4-ccr5, 5000 µM
[8] = MMV: MTT Cytotoxicity Assay Day 7 pi of Assay #11 (NO washout), U87-CD4-CXCR4 cells, % cell death @ 5mM compound; type: toxicity, cell-based; conditions: human, u87-cd4-cxcr4, 5000 µM
[9] = tested on: Human immunodeficiency virus 1; assay: MMV: HIV CXCR4-tropic env HxB2 pseudovirus assay produces luciferase signal in lieu of replicating viral particles Day 3 pi, U87-CD4-CXCR4, % inhibition at 5 mM compound; type: functional; design: dose or concentration left out as unconfirmed; conditions: Human immunodeficiency virus 1, HxB2, U87.CD4.CXCR4, 72 h

| Compound | inhibition [1] | % Cell Death [2] | % Cell Death [3] | inhibition [4] | % Cell Death [5] | % Cell Death [6] | % Cell Death [7] | % Cell Death [8] | inhibition [9] |
| --- | --- | --- | --- | --- | --- | --- | --- | --- | --- |
| Cc1cc(NC(=O)C2c3ccccc3C(=O)N(CC(C)C)C2c2cccs2)no1 (centres undefined) | 8% | 23 | 26 | 7% | 55 | -20 | 36 | -16 | – |
| COc1ccc(/C=C2/SC(=Nc3ccccc3)NC2=O)cc1 | – | 54 | 28 | – | 93 | 77 | 115 | 66 | 3% |
| CC(C)(C)c1ccc(C2CC3=Nc4ccccc4N(C(=O)c4ccccc4Cl)C(c4ccc(F)cc4)C3=C(O)C2)cc1 (centres undefined) | – | -12 | 31 | – | 8 | 17 | 28 | 5 | -1% |
| Cc1ccc(C)c(Cn2c(N3CCC(C(=O)NCc4cccs4)CC3)nc3ccccc32)c1 | – | 108 | 38 | – | 57 | 2 | 98 | 47 | 7% |
| CCC(C)NCC(O)(c1ccc(Cl)cc1)c1ccc(Cl)cc1 (centres undefined) | 2% | -1 | 23 | -2% | -11 | -33 | 31 | 3 | – |
| COc1ccccc1NC1=C(N2CCCCC2)C(=O)c2ccccc2C1=O | 5% | 34 | 15 | 1% | 22 | 8 | 19 | -50 | – |
| CCOC(=O)c1c[nH]c2c(CC)cccc2c1=O | 7% | 39 | 76 | 8% | 36 | 14 | -1 | 35 | – |
| COc1ccc(C(=O)C2CC2c2ccc(Cl)cc2)cc1 (centres undefined) | -2% | 40 | 29 | 3% | 6 | 66 | 32 | 35 | – |
| CCN(CC)CCCNc1ccnc2cc3ccccc3cc12 | 5% | 41 | 35 | – | 51 | 55 | 60 | 85 | – |
| COc1ccc(C=C2SC(Nc3ccc(F)cc3)=NC2=O)c(OC)c1 | – | 25 | 28 | – | -49 | 0 | 96 | 65 | 4% |
| O=C(Cc1ccccc1)NC(c1ccc(Cl)cc1)c1c(O)ccc2ccccc12 (centres undefined) | 3% | 11 | 23 | – | 18 | -8 | 2 | -16 | – |
| CCCCCCn1c(=N)n(CC(O)COc2cccc(C)c2)c2ccccc21.Cl (centres undefined) | – | 43 | 17 | – | 33 | -16 | 71 | 50 | 2% |
| CCCCc1c(CCC)c(=N)c2ccccc2n1C.I | 7% | -13 | 21 | – | 27 | 55 | -4 | -12 | – |
| CCOc1cc2c(cc1OCC)C(c1cc(OC)c(O)cc1Cl)NCC2 (centres undefined) | 10% | 31 | 1 | – | 7 | -19 | 25 | 20 | – |
| Cc1ccc2cc3c(N)c4c(C)ccc(C)c4nc3nc2c1 | 5% | -9 | -14 | – | 46 | -5 | 18 | 31 | – |
| CCN(CC)c1cc(C)c2cc(NC(=O)c3cccc(OC)c3)ccc2n1 | 7% | -1 | 5 | – | 3 | -25 | 39 | -2 | – |
| Br.CCn1c2c(c(=N)c3c1CCC3)CCCC2 | -2% | -56 | 30 | – | -8 | -30 | -14 | -11 | – |

| Compound | inhibition [1] | % Cell Death [2] | % Cell Death [3] | inhibition [4] | % Cell Death [5] | % Cell Death [6] | % Cell Death [7] | % Cell Death [8] | inhibition [9] |
| --- | --- | --- | --- | --- | --- | --- | --- | --- | --- |
| Cn1c(C(=O)c2cccc3ccccc23)nc2ccccc21 | 9% | -32 | 32 | – | -37 | -12 | 2 | -77 | – |
| N=c1n(CCN2CCCCC2)c2ccccc2n1CC(=O)c1ccc(Cl)c(Cl)c1 | 0% | -21 | 9 | – | -5 | 4 | -3 | -14 | – |
| CC(NCc1ccccc1)c1cc(Cl)ccc1O (centres undefined) | 6% | 1 | 6 | – | -2 | -15 | 26 | -3 | – |
| Cc1cc(Nc2ccc(Cl)cc2)n2nc(C(F)(F)F)nc2n1 | 2% | 27 | 12 | – | 46 | -20 | 56 | -18 | – |
| Cc1ccc(NC(=O)Nc2cccc(Cl)c2)cc1F | 0% | -7 | 26 | – | 12 | -22 | 8 | -5 | – |
| Cl.Oc1ccccc1CNCC12CC3CC(CC(C3)C1)C2 | 3% | -8 | 15 | – | 20 | -11 | 37 | -2 | – |
| CCC(c1ccccc1)c1nn2c(-c3cccs3)nnc2s1 (centres undefined) | 9% | 3 | 41 | 0% | 18 | 28 | 41 | 73 | – |
| Oc1ccc(-c2nc(-c3ccc4oc5ccc(-c6[nH]c(-c7ccc(O)cc7)nc6-c6ccccc6)cc5c4c3)c(-c3ccccc3)[nH]2)cc1 | 1% | -2 | 46 | – | -12 | 17 | 56 | 89 | – |
| Cc1cc(C)cc(Nc2cc(C)nc3nc(C(F)(F)F)nn23)c1 | 7% | 10 | 26 | – | 29 | -6 | -23 | -5 | – |
| O=C(Nc1ccc(Br)cc1)Nc1cccc(Cl)c1 | 9% | 9 | 22 | – | 8 | -4 | 44 | 64 | – |
| Br.Cc1ccc(C)c(-c2csc(Nc3ccc(C)c(C)c3)n2)c1 | -1% | -10 | 21 | – | 5 | 39 | 48 | 28 | – |
| O=C(Nc1ccsc1C(=O)NC1CCCCC1)c1ccc(F)cc1 | 3% | -22 | 8 | -2% | -4 | -43 | -2 | -14 | – |
| COc1cccc(NC(=O)Cn2c(C)c(C#N)c3ccccc32)c1 | 8% | 23 | 47 | – | 29 | -5 | 12 | -1 | – |
| CN(C)CCNc1cc(-c2ccccc2)nc2ccccc12 | 5% | 26 | 18 | – | 6 | -12 | 71 | 85 | – |
| COc1cccc(NC(=O)[C@H](C(C)C)n2c(=O)[nH]c3ccccc3c2=O)c1 | 0% | 24 | 20 | – | 24 | 5 | 27 | 7 | – |
| CC1CC(C)CN(C(=O)c2ccc(Cl)cc2Cl)C1 (centres undefined) | -1% | -5 | 31 | 5% | -14 | -16 | -31 | -51 | – |
